The record followed here is patent publication US8178713B2, “Sulfur-containing phospholipid derivatives” (Pronovo Biopharma Norge AS, priority 2002, dated 2012).

Marks after values point to notes of the source that are not given here.

The subject of test [1] is mitochondrial carnitine palmitoyltransferase-II. The test can be described thus: Mitochondrial carnitine palmitoyltransferase-II activity after feeding. It is filed as in vivo, rat. Conditions: mitochondrial fraction of liver; fed 1 mmole TTA/day/kg, 6 days; control 8.32 ± 1.42. The source says: (§1) Male wistar rats (4-5 rats in each treatment group) were fed TTA, TTA-PC or TTA-TAG at equimolar doses of TTA (1 mmole/day/kg body weight) for 6 days. Control rats received only 0.5% CMC. The rats were sacrificed and evaluated for lipid lowering effects, increased fatty acid oxidation, and activity of key mitochondrian enzymes, carnitine palmitoyltransferase-II, 3-hydroxy-3-methylglutharyl-CoA synthase and fatty acyl-CoA oxidases.
(§2) Male Wistar Charles River rats weighing 200-250 g at the start of the experiment were housed in metal wire cages in a temperature (22±1° C.) and light-controlled (light from 7.00 a.m. to 7.00 p.m.) room. They were given free access to chow and water. […] Weight gain and food intake were recorded daily. […]
(§3) Freshly isolated livers from individual male wistar rats, were homogenised in ice-cold sucrose buffer (0.25 M sucrose, 10 mM HEPES (pH 7.4) and 2 mM EDTA). […] Acid soluble products were measured in post-nuclear fractions, using [1-^14C]-palmitoyl-CoA (Radiochemical Centre, Amersham, England) as substrates as described in literature.^15 Carnitine palmitoyltransferase-II activities were measured in the mitochondrial fraction essentially as described by Bremer^16 and 3-hydroxy-3-methylglutharyl-CoA synthase was measured according to Clinkenbeard et al.^17 in the post-nuclear fraction. […]

Test [2] relates to male Wistar rats. The test is described as follows: Effect of esterified and non-esterified TTA on plasma lipids, fed for 6 days. It is filed as in vivo, rat. Conditions: for plasma Triacylglycerol / plasma Cholesterol: fed at equimolar doses of TTA, 1 mmole/day/kg body weight; for plasma Triacylglycerol: control (0.5% CMC) 1.20 ± 0.35; for plasma Cholesterol: control (0.5% CMC) 1.84 ± 0.25.
Description: as §1
(§4) Male Wistar Charles River rats weighing 200-250 g at the start of the experiment were housed in metal wire cages in a temperature (22±1° C.) and light-controlled (light from 7.00 a.m. to 7.00 p.m.) room. They were given free access to chow and water. They were fed a Standard Laboratory Rat Chow R-34-EWOS-ALAB (EWOS Sweden) grower rat maintenance chow. Two rats were housed per cage. The animals were acclimatized for at least 5 days before the start of the experiments. Weight gain and food intake were recorded daily. TTA and esterified TFAs (1,2-Di(1,2-Di(tetradecylthioacetoyl)-sn -glycero-3-phosphocholine (TTA-PC) and Glyceryl 1,2,3-Tri(tetradecylthioacetate) (triacylglycerol) (TTA-TAG)) were suspended in 0.5% carboxymethylcellulose (CMC) and administered by gastric intubation in a final volume of 0.8-1.2 ml once a day for 6 days.
At the end of the experiments the animals were anaesthetized with Fluorane (0.4 ml/100 g body weight) and cardiac puncture was performed to obtain blood samples in EDTA containing vacutainers. Plasma was prepared and triacylglycerol and cholesterol were measured using the Monotest enzymatic kit (Boehringer Mannheim, Germany).

The subject of the next test is Fatty acyl-CoA oxidase. The test is described as follows: Fatty acyl-CoA oxidase activity in rat liver homogenate after feeding. It is filed as in vivo. Conditions: fed 1 mmole TTA/day/kg, 6 days, control 16.50 ± 4.74.
Description: as §1, §2, §3

For test [3], the system named is Palmitoyl-CoA oxidation in rat liver homogenate. The test is described as follows: Palmitoyl-CoA oxidation in rat liver homogenate after feeding. The format is in vivo. To be noted: fed 1 mmole TTA/day/kg, 6 days, control 0.75 ± 0.06.
Description: as §1, §2, §3

The subject of test [4] is 3-Hydroxy-3-methylglutharyl-CoA synthase. The test is described as follows: 3-Hydroxy-3-methylglutharyl-CoA synthase activity in rat liver homogenate after feeding. To be noted: fed 1 mmole TTA/day/kg, 6 days; for 3-Hydroxy-3-methylglutharyl-CoA synthase Enzyme activity: rat liver homogenate, control 28.23 ± 4.43. The format is in vivo.
Description: as §1
Male Wistar Charles River rats weighing 200-250 g at the start of the experiment were housed in metal wire cages in a temperature (22±1° C.) and light-controlled (light from 7.00 a.m. to 7.00 p.m.) room. They were given free access to chow and water. They were fed a Standard Laboratory Rat Chow R-34-EWOS-ALAB (EWOS Sweden) grower rat maintenance chow. Two rats were housed per cage. The animals were acclimatized for at least 5 days before the start of the experiments. Weight gain and food intake were recorded daily. […]
Freshly isolated livers from individual male wistar rats, were homogenised in ice-cold sucrose buffer (0.25 M sucrose, 10 mM HEPES (pH 7.4) and 2 mM EDTA). […] Acid soluble products were measured in post-nuclear fractions, using [1-^14C]-palmitoyl-CoA (Radiochemical Centre, Amersham, England) as substrates as described in literature.^15 Carnitine palmitoyltransferase-II activities were measured in the mitochondrial fraction essentially as described by Bremer^16 and 3-hydroxy-3-methylglutharyl-CoA synthase was measured according to Clinkenbeard et al.^17 in the post-nuclear fraction. Fatty acyl-CoA oxidase was measured in the post-nuclear fraction by the coupled assay described by Small et al.^18 The production of hydrogen peroxide was measured by monitoring the increase in dichlorofluorescein absorbance in the presence of palmitoyl-CoA.

Test [5] deals with male Wistar rats. The test is described as follows: Effect of esterified and non-esterified TTA on hepatic triacylglycerol content. The format is in vivo, rat. Conditions: 6 days; for hepatic Triacylglycerol content: fed 1 mmole TTA/day/kg body weight, control 3.71 ± 0.50.
Description: as §1, §4

Regarding `CCCCCCCCCCCCCCSCC(=O)OCC(COC(=O)CSCCCCCCCCCCCCCC)OC(=O)CSCCCCCCCCCCCCCC` [TTA-TAG, 1,2,3-Tritetradecylthioacetoyl-sn-glycerol], the “carnitine palmitoyltransferase-II Enzyme activity” value in test [1] is listed as 17.88 ± 4.37^a nmol/mg/min. Further, in the test on male Wistar rats [2], the “plasma Triacylglycerol” value is given as 0.56 ± 0.21^a mmol/L and the “plasma Cholesterol” value is 1.18 ± 0.12^a mmol/L. In addition, in the test on Fatty acyl-CoA oxidase, the “Fatty acyl-CoA oxidase Enzyme activity” value was 49.87 ± 22.51^a nmol/mg/min. Also, the Palm-CoA oxidised in test [3] is reported as 1.37 ± 0.08^a nmol/mg/min. Besides, the “3-Hydroxy-3-methylglutharyl-CoA synthase Enzyme activity” value in test [4] is 40.35 ± 6.16^a nmol/mg/min. Further, the “hepatic Triacylglycerol content” value in the test with male Wistar rats [5] is given as 2.88 ± 0.50^a μmol/mg protein.
As for `CCCCCCCCCCCCCCSCC(=O)OC[C@H](COP(=O)([O-])OCC[N+](C)(C)C)OC(=O)CSCCCCCCCCCCCCCC` [TTA-PC, 1,2-ditetradecylthioacetoyl-sn-glycero-3-phosphocholine], the “carnitine palmitoyltransferase-II Enzyme activity” value in test [1] was 31.96 ± 2.63^a,b nmol/mg/min. The “decrease in plasma triacylglycerol and cholesterol levels compared to the control (largest decrease)” value in the test with male Wistar rats [2] (fed 1 mmole TTA/day/kg) amounted to 60%. Besides, in the test with male Wistar rats [2], the “plasma Triacylglycerol” value is recorded as 0.47 ± 0.21^a,b mmol/L and the “plasma Cholesterol” value is reported as 0.74 ± 0.20^a mmol/L. For the same compound, the “Fatty acyl-CoA oxidase Enzyme activity” value in the test with Fatty acyl-CoA oxidase is on record as 129.48 ± 15.08^a,b nmol/mg/min. The Palm-CoA oxidised in test [3] is listed as 1.39 ± 0.15^a nmol/mg/min. Further, in test [4], the “increased 3-hydroxy-3-methylglutharyl-CoA synthase activity relative to that after feeding non-esterified TTA” value is recorded as “more than three times as large” and the “3-Hydroxy-3-methylglutharyl-CoA synthase Enzyme activity” value is reported as 97.77 ± 20.51^a,b nmol/mg/min. Further, the “hepatic Triacylglycerol content” value in the test with male Wistar rats [5] was 2.53 ± 0.43^a μmol/mg protein. Besides, the “decrease in the hepatic triacylglycerol level compared to the control (largest decrease)” value in the test with male Wistar rats [5] (fed 1 mmole TTA/day/kg) worked out at 30%.
